From patent US20230271770A1, “Anti-Viral Pharmaceutical Formulations Administered Via Devices for Lung Targeted Delivery” (priority 2020, published 2023) come the findings set out here.

Details of this series: species or system mice. Conditions: mouse, in vivo, 10 min. The protocol:
Mice can breathe the aerosol of drug products. A breathing tank is used for mice to breathe the aerosol of the drug product, such as HCQ. The drug product is administered through the specially designed stainless steel breathing tank 1800, for example as shown in FIG. 18.
The exposure tank size is designed such that the total breathing volume of all eight mice during a 10-minute breathing treatment (1.8 L) is less than 10% of the tank size (21.5 L). The internal wall of the tank is electrically polished to minimize its adsorption of the study drug. Eight mice were mounted to the tank with four mice on each side using small animal restraints. At the start of each treatment session, an effective amount of the drug was administered into pre-cleaned tank. A stirring fan installed inside the tank was set to promote circulation of the pharmaceutical agent. Specifically, the fan was set at 400 RPM in this study and turned on before the pharmaceutical agent was administered. Thirty seconds after the last spray (t=0 minute), eight mice were mounted to the inhalation chamber to breathe the air from inside the breathing tank for 10 minutes, and then were taken off the breathing tank. Samples from the mice were taken, starting immediately after removal from the tank, to perform pharmacokinetic studies. […]

Regarding `CCN(CCO)CCCC(C)Nc1ccnc2cc(Cl)ccc12` (stereo not shown) [HCQ, hydroxychloroquine], the “appearance of mice during and after treatment” value is “appeared healthy, with no signs of distress”.
